Test results published in US20110269825A1, “Modified Thromboxane A2 Receptor Promoter Sequence” (priority 2008, published 2011).

Columns and labels:
[1] = test system: HEK (Human embryonic kidney) 293 cells; experiment: Dual luciferase genetic reporter assay in HEK 293 cells; format: cell-based
Method: (§1) HEL and EA.hy 926 cells were co-transfected with the various pGL3Basic-recombinant plasmids (2 mg), encoding firefly luciferase, along with pRL-TK (200 ng), encoding renilla luciferase, using DMRIE-C® transfection reagent. HEK293, WI-38, and 1° hAoSMCs were co-transfected with the pGL3Basic-recombinant plasmids (2 mg), along with pRL-TK (200 ng), using Effectene transfection reagent. In all cases, cells co-transfected with pRL-TK (200 ng) in the presence of either the pGL3Control vector (firefly luciferase gene under the control of the SV40 promoter; 2 mg) or the promoter-less pGL3Basic empty vector (2 mg), which served as positive and negative controls, respectively. Firefly and renilla luciferase expression was assayed some 48 h post-transfection using the Dual-Luciferase Reporter Assay System™, as described (Coyle et al., 2005). Relative firefly to renilla luciferase activity (arbitrary units) was calculated as a ratio and was expressed in relative luciferase units (RLU). To investigate the effect of over-expression of exon 5 (+ or −) or KTS (+ or −) isoforms of WT1 on Prm1-directed gene expression, HEL cells were co-transfected with either pGL3b:Prm1 or pGL3b:Prm1D (1.5 μg) plus 200 ng of pRL-TK along with either pcDNA3:WT1 (+/+), pcDNA3:WT1 (+/−), pcDNA3:WT1 (−/+), pcDNA3:WT1 (−/−) (0.5 μg), or as a control, pcDNA3 (0.5 μg). Cells were harvested 48 h post-transfection and assayed for luciferase activity, as above, or subjected to western blot or RT-PCR analysis. The plasmids pcDNA3:WT1 (+/+), pcDNA3:WT1 (+/−), pcDNA3:WT1 (−/+) and pcDNA3:WT1 (−/−) were generously donated by Dr. Charles T. Roberts JR, Oregon National Primate Research Center, Oregon, USA and have been previously described (Tajinda et al., 1999). For PMA studies, approximately 32 h post-transfection, the medium was supplemented with PMA (100 nM), with PMA (100 nM) and PD98059 (10 μM) or, as a control, with vehicle [0.1% (v/v) DMSO]. After 16 h, cells were assayed for firefly and renilla luciferase using the Dual-Luciferase Reporter Assay System™ as previously described (Coyle et al., 2005). […]

[2] = test system: 1° hAoSMC (primary human aortic smooth muscle) cells; experiment: Dual luciferase genetic reporter assay in 1° hAoSMC; format: cell-based; settings: for Mean firefly relative to renilla luciferase activity: co-transfected with pRL-TK
Method: as §1

[3] = test system: WI-38 (human lung fibroblast) cells; experiment: Dual luciferase genetic reporter assay in WI-38 cells; format: cell-based
Method: as §1

[4] = test system: EA.hy 926 (human endothelial) cells; experiment: Dual luciferase genetic reporter assay in EA.hy 926 cells; format: cell-based
Method: as §1

HEL 92.1.7 cells = experiment: Dual luciferase genetic reporter assay of promoter-directed luciferase expression in HEL cells; format: cell-based, human
Method: HEL and EA.hy 926 cells were co-transfected with the various pGL3Basic-recombinant plasmids (2 mg), encoding firefly luciferase, along with pRL-TK (200 ng), encoding renilla luciferase, using DMRIE-C® transfection reagent. HEK293, WI-38, and 1° hAoSMCs were co-transfected with the pGL3Basic-recombinant plasmids (2 mg), along with pRL-TK (200 ng), using Effectene transfection reagent. In all cases, cells co-transfected with pRL-TK (200 ng) in the presence of either the pGL3Control vector (firefly luciferase gene under the control of the SV40 promoter; 2 mg) or the promoter-less pGL3Basic empty vector (2 mg), which served as positive and negative controls, respectively. Firefly and renilla luciferase expression was assayed some 48 h post-transfection using the Dual-Luciferase Reporter Assay System™, as described (Coyle et al., 2005). Relative firefly to renilla luciferase activity (arbitrary units) was calculated as a ratio and was expressed in relative luciferase units (RLU). To investigate the effect of over-expression of exon 5 (+ or −) or KTS (+ or −) isoforms of WT1 on Prm1-directed gene expression, HEL cells were co-transfected with either pGL3b:Prm1 or pGL3b:Prm1D (1.5 μg) plus 200 ng of pRL-TK along with either pcDNA3:WT1 (+/+), pcDNA3:WT1 (+/−), pcDNA3:WT1 (−/+), pcDNA3:WT1 (−/−) (0.5 μg), or as a control, pcDNA3 (0.5 μg). Cells were harvested 48 h post-transfection and assayed for luciferase activity, as above, or subjected to western blot or RT-PCR analysis. The plasmids pcDNA3:WT1 (+/+), pcDNA3:WT1 (+/−), pcDNA3:WT1 (−/+) and pcDNA3:WT1 (−/−) were generously donated by Dr. Charles T. Roberts JR, Oregon National Primate Research Center, Oregon, USA and have been previously described (Tajinda et al., 1999). For PMA studies, approximately 32 h post-transfection, the medium was supplemented with PMA (100 nM), with PMA (100 nM) and PD98059 (10 μM) or, as a control, with vehicle [0.1% (v/v) DMSO]. After 16 h, cells were assayed for firefly and renilla luciferase using the Dual-Luciferase Reporter Assay System™ as previously described (Coyle et al., 2005). The plasmid pCMV5-NAB1, containing the entire coding sequence for NAB1, was generously donated by Dr. Gerald Thiel, University of Saarland Medical Center, Homburg, Germany, and has been described previously (Thiel et al., 2000). To investigate the effect of over-expression of NAB1 on the PMA-mediated induction of Prm1-directed gene expression, HEL cells were transiently co-transfected with pGL3b:Prm1 (2 μg) plus pRL-TK (200 ng) along with either pCMV5 (control) or pCMV:NAB1 (1 μg). Cells were harvested 48 h post-transfection and assayed for luciferase activity, as above.

[5] = test system: human tissue factor (hTF); experiment: Immunoblot analysis of promoter-driven human tissue factor expression in HEL cells; format: cell-based; settings: 48 h post-transfection, compared with CMV promoter (pcDNA3.1(−):hTF) and pcDNA3.1(−)
Method: The expression of WT1, Sp1, Egr1, NF-E2, GATA-1 and Ets-1 proteins in HEL cells was confirmed by western blot analysis. Briefly, whole cell protein was resolved by SDS-PAGE (10% acrylamide gels) and transferred to polyvinylidene difluoride (PVDF) membrane according to standard methodology. Membranes were screened using anti-WT1, anti-NF-E2, anti-Sp1, anti-Egr1, anti-GATA-1 or anti-Ets-1 sera in 5% non fat dried milk in 1×TBS (0.01 M Tris/HCl, 0.1 M NaCl) for 2 h at room temperature followed by washing and screening using goat anti-rabbit horseradish peroxidase (sc-2204) followed by chemiluminescence detection, as described by the supplier (Roche Applied Science). For PMA studies, HEL cells were pre-incubated for the indicated amount of time with 100 nM PMA, with 10 μM PD98059, with 100 nM PMA plus 10 μM PD98059 or, as a control, with vehicle [0.1% (v/v) DMSO]. Whole cell protein (60 μg per lane) was resolved by SDS-PAGE (10% acrylamide gels) and transferred to polyvinylidene difluoride (PVDF) membrane according to standard methodology. […] Cells were harvested 48 hr post-transfection and aliquots ([…]) were analysed by SDS-PAGE/western blot analysis. As a positive control for hTF expression, […] of a commercial control Tissue-Factor Biomass was also analysed. […]

Prm1 = settings: cited from earlier work
Prm3 = settings: cited from earlier work

Q: Which “Ratio of luciferase expression relative to that directed by pGL3Control” value ([1]; HEK) does the source give for “Prm1^GC*^(−8146): Prm1 with GC element at −8146 mutated (SEQ ID NO:13) (DNA CGGGGGTCGTGGGGTGGATGGCGGGCCAA; expressed or natural sequence; listed as Homo sapiens)” here?
A: 0.69

Q: What about the “Statistical significance of luciferase expression vs Prm1” value (“Statistical significance … vs Prm1” for short) ([1]; HEK 293, ↑ = increase) of the same molecule?
A: ns

Q: And the “Mean firefly relative to renilla luciferase activity” value ([1]; HEK 293 cells, co-transfected with pRL-TK)?
A: 6.9 RLU

Q: What about the “Ratio of luciferase expression relative to that directed by pGL3Control” value [2] of the same molecule?
A: 1.18

Q: And the “Mean firefly relative to renilla luciferase activity” value [2]?
A: 82.67 RLU

Q: What about the “Mean firefly relative to renilla luciferase activity” value ([2]; listed as pGL3BPrm1GC-8146) of the same molecule?
A: 82.668 RLU

Q: And the “Ratio of luciferase expression relative to that directed by pGL3Control” value ([3]; WI-38)?
A: 0.51

Q: What about the “Statistical significance … vs Prm1” value ([3]; WI-38, ↑ = increase) of the same molecule?
A: ns

Q: What about the “Mean firefly relative to renilla luciferase activity” value ([3]; WI-38 cells, co-transfected with pRL-TK) of the same molecule?
A: 59.01 RLU

Q: And the “Ratio of luciferase expression relative to that directed by pGL3Control” value ([4]; EA.hy 926)?
A: 0.06

Q: And the “Statistical significance … vs Prm1” value ([4]; EA.hy 926, ↑ = increase)?
A: ns

Q: What about the “Mean firefly relative to renilla luciferase activity” value ([4]; EA.hy 926 cells, co-transfected with pRL-TK) of the same molecule?
A: 3.11 RLU

Q: And the “Ratio of luciferase expression relative to that directed by pGL3Control” value (HEL 92.1.7 cells; HEL)?
A: 2.65

Q: What about the “Mean firefly relative to renilla luciferase activity” value (HEL 92.1.7 cells; HEL cells, co-transfected with pRL-TK, 48 h post-transfection) of the same molecule?
A: 21.5 RLU

Q: What about the “Increase in luciferase activity relative to Prm1 (−8500)” value (HEL 92.1.7 cells; HEL, 5′ deletion or site-directed mutation of Prm1) of the same molecule?
A: 2.5 fold

Q: What about the “Luciferase expression compared with another construct, in words” value (HEL 92.1.7 cells; HEL, comparator as named in the words or parent fragment) of the same molecule?
A: significantly stronger promoters

Q: And the “Level of human tissue factor expression driven by the promoter” value [5]?
A: significantly greater

Q: For `CCCCC/C=C/C=C1/C(=O)C=C[C@@H]1C/C=C\CCCC(=O)O` [15d-PGJ2, 15-deoxy-Δ12,14-prostaglandin J2], which “Effect on Prm1” value (Prm1) is on record?
A: had no effect on Prm1

Q: And the “Effect on transcriptional activity of Prm3” value (Prm3)?
A: suppressed the transcriptional activity of Prm3
